Data from patent US20210330594A1, “Fast-Acting Soft Gelatin Capsules Containing A Mixture Of Pain Reliever/Fever Reducer, Diuretic And Antihistamine” (PuraCap Pharmaceutical LLC, priority 2018, published 2021).
Structures can show the parent of a compound that is named as a salt.

Test: Stability determination of softgels under accelerated conditions (API assay)
Type: physicochemical
Details: for T0 % of label: softgel of Example 1, initial (T0) API assay; for Assay % of label 40° C./75% RH 1 M / Assay % of label 40° C./75% RH 2 M / Assay % of label 40° C./75% RH 3 M: softgel, accelerated conditions 40° C./75% RH
Experimental: Manufactured softgels are evaluated to predict shelf life of the product. Softgel samples are kept under accelerated conditions (ACC) of 40° C./75% RH for 180 days. Samples are withdrawn and tested at predetermined periods for API assay and homogeneity. Results are compared against the label specification; if ACC-6M results (i.e., at 6 months) are within specification then a product shelf life of 2 years is predicted.

T0 % of label | Assay % of label 40° C./75% RH 1 M | Assay % of label 40° C./75% RH 2 M | Assay % of label 40° C./75% RH 3 M | Compound
94.3 % of label | 94.0 % of label | 94.2 % of label | 93.9 % of label | COc1ccc(CN(CCN(C)C)c2ccccn2)cc1 [Pyrilamine Maleate]
94.2 % of label | 94.0 % of label | 94.1 % of label | 92.2 % of label | CC(=O)Nc1ccc(O)cc1 [Acetaminophen]
95.5 % of label | 95.1 % of label | 95.0 % of label | 93.4 % of label | Cn1c(=O)c2[nH]c(Br)nc2n(C)c1=O [Pamabrom]
